Tests used:
Assay type in all cases: in vivo
[1] = test system: smallflower flatsedge (Cyperus difformis); assay: Test C flooded paddy test; conditions: for Flatsedge plant response rating: Flooded Paddy, scale 0 to 100, 0 no effect, 100 complete control; for Plant response rating, Flatsedge: flooded paddy test, scale 0 to 100 (0 no effect, 100 complete control)
Method in brief: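 Visual ratings (0 = no effect, 100 = complete control) were made 12–14 days after treatment, relative to greenhouse controls. Plants in the flooded paddy test were rice, smallflower flatsedge, duck salad and barnyardgrass, treated at the 2-leaf stage.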

[2] = test system: giant foxtail (Setaria faberii); assay: Test B preemergence
Method in brief: (§1)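 Post-treatment, species sat 13–15 days under greenhouse conditions before visual scoring against controls, 0 (no effect) through 100 (complete control). Application preemergence to sown seeds or postemergence at 1- to 4-leaf stage, using a non-phytotoxic solvent/surfactant formulation.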

rice (Oryza saliva) = assay: Test B preemergence
Method in brief: as §1

[3] = test system: barnyardgrass (Echinochloa crus-galli); assay: Test B preemergence
Method in brief: as §1

[4] = test system: pigweed (Amaranthus retroflexus); assay: Test B preemergence
Method in brief: as §1

corn (Zea mays) [5] = assay: Test B preemergence
Method in brief: as §1

[6] = test system: crabgrass (Digitaria sanguinalis); assay: Test B preemergence
Method in brief: as §1

[7] = test system: morning glory (Ipomoea hederacea); assay: Test B preemergence
Method in brief: as §1

[8] = test system: lambsquarters (Chenopodium album); assay: Test B preemergence
Method in brief: as §1

[9] = test system: Surinam grass (Brachiaria decumbens); assay: Test B preemergence
Method in brief: as §1

[10] = test system: cocklebur (Xanthium strumarium); assay: Test B preemergence
Method in brief: as §1

[11] = test system: velvetleaf (Abutilon theophrasti); assay: Test B preemergence
Method in brief: as §1

[12] = test system: giant foxtail (Setaria faberii); assay: Test B postemergence; conditions: 13 to 15 days
Method in brief: as §1

[13] = test system: wheat (Triticum aestivum); assay: Test B postemergence; conditions: 13 to 15 days
Method in brief: as §1

[14] = test system: barnyardgrass (Echinochloa crus-galli); assay: Test B postemergence; conditions: 13 to 15 days
Method in brief: as §1

[15] = test system: pigweed (Amaranthus retroflexus); assay: Test B postemergence; conditions: 13 to 15 days
Method in brief: as §1

corn (Zea mays) [16] = assay: Test B postemergence; conditions: 13 to 15 days
Method in brief: as §1

[17] = test system: crabgrass (Digitaria sanguinalis); assay: Test B postemergence; conditions: 13 to 15 days
Method in brief: as §1

[18] = test system: blackgrass (Alopecurus myosuroides); assay: Test B postemergence; conditions: 13 to 15 days
Method in brief: as §1

[19] = test system: morning glory (Ipomoea hederacea); assay: Test B postemergence; conditions: 13 to 15 days
Method in brief: as §1

[20] = test system: lambsquarters (Chenopodium album); assay: Test B postemergence; conditions: 13 to 15 days
Method in brief: as §1

wild oat (Avena fatua) = assay: Test B postemergence; conditions: 13 to 15 days
Method in brief: as §1

[21] = test system: Surinam grass (Brachiaria decumbens); assay: Test B postemergence; conditions: 13 to 15 days
Method in brief: as §1

[22] = test system: cocklebur (Xanthium strumarium); assay: Test B postemergence; conditions: 13 to 15 days
Method in brief: as §1

[23] = test system: velvetleaf (Abutilon theophrasti); assay: Test B postemergence; conditions: 13 to 15 days
Method in brief: as §1

Sunflower = assay: Test C preemergence; conditions: visual evaluation after 12 to 14 days
Nightshade = assay: Test C preemergence; conditions: visual evaluation after 12 to 14 days
[24] = Preemergence, Rate 500 g/ha, scale 0 to 100, 0 no effect, 100 complete control
[25] = preemergence, Rate 125 g/ha, scale of 0 to 100 where 0 is no effect and 100 is complete control, 13 to 15 days
[26] = Rate 125 g/ha, scale 0 (no effect) to 100 (complete control)
[27] = Rate 500 g/ha, scale 0 to 100, 0 is no effect, 100 is complete control

SMILES: CC1(c2ccn(C3OCN(c4cccc(C(F)(F)F)c4)C3=O)n2)CC1 (centres unmarked) [Compound 62]
- Flatsedge plant response rating ([1]; Rate 250 g/ha): 90
- Flatsedge plant response rating ([1]; Rate 500 g/ha): 100
- Plant response rating, Flatsedge ([1]; Rate 62 g/ha): 0
- Plant response rating, Flatsedge ([1]; Rate 125 g/ha): 90
- Plant response rating, Foxtail, Giant [2, 24]: 80
- Plant response rating, Foxtail, Giant [2, 25]: 0
- Plant response rating, Rice (rice (Oryza saliva); [24]): 30
- Plant response rating, Rice (rice (Oryza saliva); [25]): 0
- Plant response rating, Barnyardgrass [3, 24]: 90
- Plant response rating, Barnyardgrass [3, 25]: 0
- Plant response rating, Pigweed [4, 24]: 100
- Plant response rating, Pigweed [4, 25]: 100
- Plant response rating, Corn (corn (Zea mays) [5]; [24]): 0
- Plant response rating, Corn (corn (Zea mays) [5]; [25]): 0
- Plant response rating, Crabgrass [6, 24]: 90
- Plant response rating, Crabgrass [6, 25]: 0
- Plant response rating, Morningglory [7, 24]: 0
- Plant response rating, Morningglory [7, 25]: 0
- Plant response rating, Lambsquarters [8, 24]: 100
- Plant response rating, Lambsquarters [8, 25]: 100
- Plant response rating, Surinam grass [9, 24]: 0
- Plant response rating, Surinam grass [9, 25]: 0
- Plant response rating, Cocklebur [10, 24]: 0
- Plant response rating, Cocklebur [10, 25]: 0
- Plant response rating, Velvetleaf [11, 24]: 0
- Plant response rating, Velvetleaf [11, 25]: 0
- Plant response rating, Foxtail, Giant [12, 26]: 0
- Plant response rating, Foxtail, Giant [12, 27]: 0
- Plant response rating, Wheat [13, 26]: 0
- Plant response rating, Wheat [13, 27]: 0
- Plant response rating, Barnyardgrass [14, 26]: 0
- Plant response rating, Barnyardgrass [14, 27]: 0
- Plant response rating, Pigweed [15, 26]: 0
- Plant response rating, Pigweed [15, 27]: 40
- Plant response rating, Corn (corn (Zea mays) [16]; [26]): 0
- Plant response rating, Corn (corn (Zea mays) [16]; [27]): 0
- Plant response rating, Crabgrass [17, 26]: 0
- Plant response rating, Crabgrass [17, 27]: 0
- Plant response rating, Blackgrass [18, 26]: 0
- Plant response rating, Blackgrass [18, 27]: 0
- Plant response rating, Morningglory [19, 26]: 0
- Plant response rating, Morningglory [19, 27]: 0
- Plant response rating, Lambsquarters [20, 26]: 0
- Plant response rating, Lambsquarters [20, 27]: 60
- Plant response rating, Wild Oat (wild oat (Avena fatua); [26]): 0
- Plant response rating, Wild Oat (wild oat (Avena fatua); [27]): 0
- Plant response rating, Surinam grass [21, 26]: 0
- Plant response rating, Surinam grass [21, 27]: 0
- Plant response rating, Cocklebur [22, 26]: 0
- Plant response rating, Cocklebur [22, 27]: 0
- Plant response rating, Velvetleaf [23, 26]: 0
- Plant response rating, Velvetleaf [23, 27]: 0
- Plant response rating (0 to 100), Sunflower (Sunflower; Rate 250 g/ha): 0
- Plant response rating (0 to 100), Sunflower (Sunflower; Rate 500 g/ha): 0
- Plant response rating (0 to 100), Nightshade (Nightshade; Rate 250 g/ha): 0
- Plant response rating (0 to 100), Nightshade (Nightshade; Rate 500 g/ha): 0

SMILES: CC1(c2ccn(C3SCN(c4cccc(OC(F)(F)F)c4)C3=O)n2)CC1 (centres unmarked) [Compound 63]
- Flatsedge plant response rating ([1]; Rate 250 g/ha): 100
- Flatsedge plant response rating ([1]; Rate 500 g/ha): 100
- Plant response rating, Flatsedge ([1]; Rate 62 g/ha): 90
- Plant response rating, Flatsedge ([1]; Rate 125 g/ha): 100
- Plant response rating, Foxtail, Giant [2, 24]: 90
- Plant response rating, Foxtail, Giant [2, 25]: 50
- Plant response rating, Rice (rice (Oryza saliva); [24]): 0
- Plant response rating, Rice (rice (Oryza saliva); [25]): 0
- Plant response rating, Barnyardgrass [3, 24]: 90
- Plant response rating, Barnyardgrass [3, 25]: 50
- Plant response rating, Pigweed [4, 24]: 100
- Plant response rating, Pigweed [4, 25]: 100
- Plant response rating, Corn (corn (Zea mays) [5]; [24]): 0
- Plant response rating, Corn (corn (Zea mays) [5]; [25]): 0
- Plant response rating, Crabgrass [6, 24]: 100
- Plant response rating, Crabgrass [6, 25]: 0
- Plant response rating, Morningglory [7, 24]: 0
- Plant response rating, Morningglory [7, 25]: 0
- Plant response rating, Lambsquarters [8, 24]: 100
- Plant response rating, Lambsquarters [8, 25]: 100
- Plant response rating, Surinam grass [9, 24]: 30
- Plant response rating, Surinam grass [9, 25]: 0
- Plant response rating, Cocklebur [10, 24]: 0
- Plant response rating, Cocklebur [10, 25]: 0
- Plant response rating, Velvetleaf [11, 24]: 0
- Plant response rating, Velvetleaf [11, 25]: 0
- Plant response rating, Foxtail, Giant [12, 26]: 0
- Plant response rating, Foxtail, Giant [12, 27]: 50
- Plant response rating, Wheat [13, 26]: 0
- Plant response rating, Wheat [13, 27]: 0
- Plant response rating, Barnyardgrass [14, 26]: 0
- Plant response rating, Barnyardgrass [14, 27]: 60
- Plant response rating, Pigweed [15, 26]: 50
- Plant response rating, Pigweed [15, 27]: 70
- Plant response rating, Corn (corn (Zea mays) [16]; [26]): 0
- Plant response rating, Corn (corn (Zea mays) [16]; [27]): 0
- Plant response rating, Crabgrass [17, 26]: 0
- Plant response rating, Crabgrass [17, 27]: 60
- Plant response rating, Blackgrass [18, 26]: 0
- Plant response rating, Blackgrass [18, 27]: 0
- Plant response rating, Morningglory [19, 26]: 0
- Plant response rating, Morningglory [19, 27]: 40
- Plant response rating, Lambsquarters [20, 26]: 60
- Plant response rating, Lambsquarters [20, 27]: 80
- Plant response rating, Wild Oat (wild oat (Avena fatua); [26]): 0
- Plant response rating, Wild Oat (wild oat (Avena fatua); [27]): 0
- Plant response rating, Surinam grass [21, 26]: 0
- Plant response rating, Surinam grass [21, 27]: 0
- Plant response rating, Cocklebur [22, 26]: 0
- Plant response rating, Cocklebur [22, 27]: 50
- Plant response rating, Velvetleaf [23, 26]: 0
- Plant response rating, Velvetleaf [23, 27]: 50
- Plant response rating (0 to 100), Sunflower (Sunflower; Rate 500 g/ha): 60
- Plant response rating (0 to 100), Nightshade (Nightshade; Rate 500 g/ha): 100

Reference: patent US7138361B2, “Herbicidal heterocycles” (E. I. du Pont de Nemours and Company, priority 2000, dated 2006)
